Measurements published in ChEMBL document CHEMBL3400056, “Novel thiazolo[3,2-b]-1,2,4-triazoles derived from naproxen with analgesic/anti-inflammatory properties: Synthesis, biological evaluation and molecular modeling studies” (Bioorg Med Chem, 2015).

What was measured:
Mus musculus [1] = assay: Antiinflammatory activity in Swiss albino mouse assessed as inhibition of carrageenan-induced paw edema at 100 mg/kg, po administered 1 hr prior to carrageenan challenge measured after 2 hrs relative to control; format: functional; set-up: scale not given: the % may be the effect or the level left
Mus musculus [2] = assay: Gastrointestinal toxicity in Swiss albino mouse assessed as ulcer index at 100 mg/kg, po measured after 2 hrs; format: organism-based; set-up: dose 100 mg/kg, route oral; conditions: in vivo
Mus musculus [3] = assay: Gastrointestinal toxicity in Swiss albino mouse assessed as ulcer index at 50 mg/kg, po measured after 2 hrs; format: organism-based; set-up: dose 50 mg/kg, route oral; conditions: in vivo
Mus musculus [4] = assay: Acute toxicity in Swiss albino mouse assessed as weight loss at 50 to 100 mg/kg, po measured up to 14 days; format: organism-based; set-up: dose 50-100 mg/kg, route oral; conditions: in vivo, 336 h
Mus musculus [5] = assay: Analgesic activity in Swiss albino mouse assessed as time of licking paws at 100 mg/kg, po measured after 2 hrs by tail flick test relative to control; format: functional
Mus musculus [6] = assay: Acute toxicity in Swiss albino mouse assessed as mortality at 50 to 100 mg/kg, po measured after 6 hrs to 14 days; format: organism-based; set-up: dose 50-100 mg/kg, route oral; conditions: in vivo
Mus musculus [7] = assay: Analgesic activity in Swiss albino mouse assessed as latancy of withdrawing tail at 50 mg/kg, po measured after 2 hrs by tail flick test relative to control; format: functional
Mus musculus [8] = assay: Analgesic activity in Swiss albino mouse assessed as latancy of withdrawing tail at 100 mg/kg, po measured after 2 hrs by tail flick test relative to control; format: functional
Mus musculus [9] = assay: Acute toxicity in Swiss albino mouse assessed as behavioral changes at 50 to 100 mg/kg, po measured up to 14 days; format: organism-based; set-up: dose 50-100 mg/kg, route oral; conditions: in vivo, 336 h
Mus musculus [10] = assay: Analgesic activity in Swiss albino mouse assessed as time of licking paws at 50 mg/kg, po measured after 2 hrs by tail flick test relative to control; format: functional
Mus musculus [11] = assay: Antiinflammatory activity in Swiss albino mouse assessed as inhibition of carrageenan-induced paw edema at 50 mg/kg, po administered 1 hr prior to carrageenan challenge measured after 2 hrs relative to control; format: functional; set-up: scale not given: the % may be the effect or the level left

| SMILES | Activity (Mus musculus [1]) [%] | UI (Mus musculus [2]) | UI (Mus musculus [3]) | Activity (Mus musculus [4]) | MPE (Mus musculus [5]) [%] | Activity (Mus musculus [6]) | MPE (Mus musculus [7]) [%] | MPE (Mus musculus [8]) [%] | Activity (Mus musculus [9]) | MPE (Mus musculus [10]) [%] | Activity (Mus musculus [11]) [%] |
| --- | --- | --- | --- | --- | --- | --- | --- | --- | --- | --- | --- |
| COc1ccc2cc(C(C)c3nc4s/c(=C\c5ccccc5OC(C)=O)c(=O)n4n3)ccc2c1 (stereo unspecified) | 44.9 | 3 | 2.9 | Non-toxic | 27 | Non-toxic | 27.8 | 13.3 | Non-toxic | 19.8 | 26.6 |
| COc1ccc2cc(C(C)c3nc4s/c(=C\c5cccc(OC(C)=O)c5)c(=O)n4n3)ccc2c1 (stereo unspecified) | 29.1 | 2.4 | 2.9 | Non-toxic | 20.7 | Non-toxic | 19.2 | 20 | Non-toxic | 17.5 | 31.6 |
| COc1ccc2cc(C(C)c3nc4s/c(=C\c5cccs5)c(=O)n4n3)ccc2c1 (stereo unspecified) | 21.2 | 2.3 | 2.6 | Non-toxic | 21.3 | Non-toxic | 10.5 | 24.9 | Non-toxic | 16.2 | 21.7 |
| COc1ccc2cc(C(C)c3nc4s/c(=C\c5ccc(OCc6ccccc6)cc5)c(=O)n4n3)ccc2c1 (stereo unspecified) | 32.5 | 2.7 | 3 | Non-toxic | 14.5 | Non-toxic | 24.4 | 28.1 | Non-toxic | 23.6 | 44.5 |
| COc1ccc2cc([C@H](C)C(=O)O)ccc2c1 [NAPROXEN] | 53.3 | 4.2 | 3.6 | – | 38.6 | – | 47.6 | 49.4 | – | 39.3 | 49.2 |
| COc1ccc2cc(C(C)c3nc4s/c(=C\c5ccc(C)o5)c(=O)n4n3)ccc2c1 (stereo unspecified) | 37 | 2.7 | 1.3 | Non-toxic | 35.3 | Non-toxic | 38.1 | 48.6 | Non-toxic | 23.9 | 41 |
| COc1ccc2cc(C(C)c3nc4s/c(=C\c5cc(Br)cs5)c(=O)n4n3)ccc2c1 (stereo unspecified) | 32.3 | 2.9 | 2.9 | Non-toxic | 21.2 | Non-toxic | 28.7 | 19 | Non-toxic | 20.1 | 43 |
| COc1ccc2cc(C(C)c3nc4s/c(=C\c5ccco5)c(=O)n4n3)ccc2c1 (stereo unspecified) | 26 | 1.9 | 2.6 | Non-toxic | 22 | Non-toxic | 13.3 | 19.3 | Non-toxic | 19.7 | 15.2 |
| COc1ccc2cc(C(C)c3nc4s/c(=C\c5ccc6ccccc6c5)c(=O)n4n3)ccc2c1 (stereo unspecified) | 44.9 | 3.4 | 2 | Non-toxic | 30.3 | Non-toxic | 30 | 32.2 | Non-toxic | 17.7 | 37.9 |
